Results on 38 molecules are retold here after ChEMBL document CHEMBL1132382 (J Med Chem, 1999).

One may read the Ki as the equilibrium dissociation constant of an inhibitor or competing ligand from its target. The low end stands for a stronger hold on the target, the high end for a looser hold on the target.

Chain of Carbonic anhydrase 1 (P00915 whole entry): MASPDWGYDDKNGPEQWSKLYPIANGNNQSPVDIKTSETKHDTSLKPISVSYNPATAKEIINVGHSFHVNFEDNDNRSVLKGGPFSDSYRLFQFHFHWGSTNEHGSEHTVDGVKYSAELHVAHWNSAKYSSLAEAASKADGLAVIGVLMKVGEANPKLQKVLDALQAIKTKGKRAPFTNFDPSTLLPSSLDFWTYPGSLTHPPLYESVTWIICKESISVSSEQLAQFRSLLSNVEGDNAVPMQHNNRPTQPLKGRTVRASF

The first assay deals with T1, Carbonic anhydrase 4 (Bos taurus, UniProt Q95323).
T1 sequence (Q95323 whole entry): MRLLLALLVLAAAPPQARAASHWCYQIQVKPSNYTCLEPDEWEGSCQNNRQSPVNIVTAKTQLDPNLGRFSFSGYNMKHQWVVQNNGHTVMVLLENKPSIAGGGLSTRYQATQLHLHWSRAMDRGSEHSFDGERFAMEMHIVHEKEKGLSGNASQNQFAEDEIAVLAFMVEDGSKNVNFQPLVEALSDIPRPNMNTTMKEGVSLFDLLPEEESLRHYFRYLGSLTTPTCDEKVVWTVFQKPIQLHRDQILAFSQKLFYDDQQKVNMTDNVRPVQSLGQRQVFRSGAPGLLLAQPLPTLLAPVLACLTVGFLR
Description: Inhibitory activity against bovine carbonic anhydrase IV (CA4), isolated from bovine lung microsomes
For `CNCC(=O)Nc1ccc2nc(S(N)(=O)=O)sc2c1`, affinity was put at a Ki of 14 nM.
`CNCC(=O)Nc1ccc(S(=O)(=O)Nc2cccc(S(N)(=O)=O)c2)cc1` gave an inhibition constant (Ki) of 61 nM.
On the same count and under the same terms, for `NCC(=O)NCC(=O)NS(=O)(=O)c1nc2ccc(O)cc2s1` the value was 62 nM; for `NCC(=O)Nc1ccc(S(=O)(=O)Nc2cccc(S(N)(=O)=O)c2)cc1`, 79 nM; for `NCC(=O)NCC(=O)Nc1cc(Cl)c(S(N)(=O)=O)cc1S(N)(=O)=O`, 54 nM.
Molecule `CNCC(=O)Nc1cccc(S(N)(=O)=O)c1` gave a Ki of 195 nM.
Same read-out and setting: for `CNCC(=O)Nc1ccc(S(N)(=O)=O)cc1Br` the value was 64 nM; for `NCC(=O)NS(=O)(=O)c1ccc(CO)cc1`, 180 nM; for `CNCC(=O)Nc1ccccc1S(N)(=O)=O`, 205 nM.
The same measure, in the same setting: for `NCC(=O)NS(=O)(=O)c1nc2ccc(O)cc2s1` the value was 69 nM; for `CN(CC(=O)Nc1ccc(S(=O)(=O)Nc2ccc(S(N)(=O)=O)cc2)cc1)C(=N)N`, 51 nM; for `CN(CC(=O)Nc1nccc(Nc2ccc(S(N)(=O)=O)cc2)n1)C(=N)N`, 40 nM.
Regarding `NCC(=O)Nc1ccc(S(N)(=O)=O)cc1Cl`, the Ki is 78 nM.
`NCC(=O)NCC(=O)Nc1ccc(S(N)(=O)=O)cc1Cl` showed a Ki of 65 nM.
The molecule `NCC(=O)NCC(=O)Nc1ccc(S(N)(=O)=O)cc1F` gave a Ki of 45 nM.
The molecule `CNCC(=O)NCc1ccc(S(N)(=O)=O)cc1` registered a Ki of 74 nM.
Molecule `NCC(=O)NNc1ccc(S(N)(=O)=O)cc1` gave a Ki of 300 nM.
For the molecule `CN(CC(=O)Nc1ccc(S(N)(=O)=O)cc1I)C(=N)N`, the Ki amounted to 69 nM.
For `NCC(=O)Nc1ccc(S(N)(=O)=O)cc1I`, the Ki worked out at 74 nM.
Same read-out and setting: for `NCC(=O)NCC(=O)NCc1ccc(S(N)(=O)=O)cc1` the value was 75 nM; for `Nc1ccc(S(=O)(=O)Nc2cccc(S(N)(=O)=O)c2)cc1`, 53 nM; for `CNCC(=O)NS(=O)(=O)c1ccc(CCO)cc1`, 112 nM.
The molecule `CN(CC(=O)Nc1cc(Cl)c(S(N)(=O)=O)cc1S(N)(=O)=O)C(=N)N` gave a Ki of 42 nM.
`CN(CC(=O)NCc1ccc(S(N)(=O)=O)cc1)C(=N)N` returned a Ki of 71 nM.
As to `NCC(=O)Nc1c(S(N)(=O)=O)cc(S(N)(=O)=O)c(Cl)c1Cl`, the affinity, expressed as Ki, was 62 nM.
`NCC(=O)NCCc1ccc(S(N)(=O)=O)cc1` came in with a Ki of 76 nM.
As to `NCC(=O)NCC(=O)Nc1ccc2nc(S(N)(=O)=O)sc2c1`, affinity was put at a Ki of 64 nM.
The molecule `CNCC(=O)Nc1nccc(Nc2ccc(S(N)(=O)=O)cc2)n1` registered a Ki of 60 nM.
In turn, `NCC(=O)Nc1nccc(Nc2ccc(S(N)(=O)=O)cc2)n1` yielded a Ki of 75 nM.
The molecule `Nc1ccc(S(=O)(=O)Nc2ccc(S(N)(=O)=O)cc2)cc1` came in with a Ki of 50 nM.
Consider `CNCC(=O)Nc1ccc(S(N)(=O)=O)cc1F`, for which affinity was put at a Ki of 46 nM.
As for `CCN(C(=O)CN)C1CC(C)S(=O)(=O)c2sc(S(N)(=O)=O)cc21` (stereo not given), the inhibitory constant (Ki) was 35 nM.
As for `CN(CC(=O)NS(=O)(=O)c1ccc(CO)cc1)C(=N)N`, the affinity corresponds to a Ki of 89 nM.
The molecule `Nc1nccc(Nc2ccc(S(N)(=O)=O)cc2)n1` had a Ki of 154 nM.

Another assay concerns the target Carbonic anhydrase 1 (Homo sapiens, UniProt P00915).
Description: Inhibitory activity against human recombinant carbonic anhydrase I (CA1)
Molecule `CN(CC(=O)Nc1ccc(S(=O)(=O)/N=c2\sc(S(N)(=O)=O)nn2C)cc1)C(=N)N` returned an inhibitory constant (Ki) of 11 nM.
Regarding `CNCC(=O)Nc1ccc(S(=O)(=O)/N=c2\sc(S(N)(=O)=O)nn2C)cc1`, the Ki is 11 nM.
Same read-out and setting: the figure for `Cn1nc(S(N)(=O)=O)s/c1=N\S(=O)(=O)c1ccc(NC(=O)CNC(=O)CN)cc1` is 13 nM; for `CNCC(=O)Nc1ccc2nc(S(N)(=O)=O)sc2c1` it is 10 nM; for `CNCC(=O)Nc1ccc(S(=O)(=O)Nc2cccc(S(N)(=O)=O)c2)cc1` it is 51 nM.
For `NCC(=O)NCC(=O)NS(=O)(=O)c1nc2ccc(O)cc2s1`, the affinity, expressed as Ki, was 12 nM.
`NCC(=O)Nc1ccc(S(=O)(=O)Nc2cccc(S(N)(=O)=O)c2)cc1`: the Ki is 60 nM.
With `NCC(=O)NCC(=O)Nc1cc(Cl)c(S(N)(=O)=O)cc1S(N)(=O)=O`, affinity was put at a Ki of 360 nM.
In turn, `CNCC(=O)Nc1cccc(S(N)(=O)=O)c1` came in with a Ki of 16600 nM.
Same read-out and setting: for `CNCC(=O)Nc1ccc(S(N)(=O)=O)cc1Br` the value was 540 nM; for `NCC(=O)NS(=O)(=O)c1ccc(CO)cc1`, 1800 nM.
The molecule `CNCC(=O)Nc1ccccc1S(N)(=O)=O` registered a Ki of 20300 nM.
Take `NCC(=O)NS(=O)(=O)c1nc2ccc(O)cc2s1`: the Ki was 16 nM.
`CN(CC(=O)Nc1ccc(S(=O)(=O)Nc2ccc(S(N)(=O)=O)cc2)cc1)C(=N)N` yielded a Ki of 46 nM.
In the case of `CN(CC(=O)Nc1nccc(Nc2ccc(S(N)(=O)=O)cc2)n1)C(=N)N`, the affinity, expressed as Ki, was 53 nM.
The molecule `NCC(=O)Nc1ccc(S(N)(=O)=O)cc1Cl` came in with a Ki of 600 nM.
As for `NCC(=O)NCC(=O)Nc1ccc(S(N)(=O)=O)cc1Cl`, the affinity corresponds to a Ki of 550 nM.
Take `NCC(=O)NCC(=O)Nc1ccc(S(N)(=O)=O)cc1F`: the Ki worked out at 540 nM.
The molecule `CNCC(=O)NCc1ccc(S(N)(=O)=O)cc1` yielded a Ki of 965 nM.
Same read-out and setting: for `NCC(=O)NNc1ccc(S(N)(=O)=O)cc1` the value was 25500 nM.
The molecule `Cn1nc(S(N)(=O)=O)s/c1=N\S(=O)(=O)c1ccc(NC(=O)CN)cc1` displayed a Ki of 15 nM.
The same measure, in the same setting: for `CN(CC(=O)Nc1ccc(S(N)(=O)=O)cc1I)C(=N)N` the value was 545 nM.
For `NCC(=O)Nc1ccc(S(N)(=O)=O)cc1I`, the Ki worked out at 610 nM.
On the same count and under the same terms, for `NCC(=O)NCC(=O)NCc1ccc(S(N)(=O)=O)cc1` the value was 1360 nM.
Take `Nc1ccc(S(=O)(=O)Nc2cccc(S(N)(=O)=O)c2)cc1`: the Ki was 44 nM.
As to `CNCC(=O)NS(=O)(=O)c1ccc(CCO)cc1`, the Ki came out at 1300 nM.
Regarding `CN(CC(=O)Nc1cc(Cl)c(S(N)(=O)=O)cc1S(N)(=O)=O)C(=N)N`, the affinity, expressed as Ki, was 310 nM.
`CN(CC(=O)NCc1ccc(S(N)(=O)=O)cc1)C(=N)N`: the inhibition constant (Ki) was found to be 950 nM.
In turn, `NCC(=O)Nc1c(S(N)(=O)=O)cc(S(N)(=O)=O)c(Cl)c1Cl` came in with a Ki of 520 nM.
Molecule `NCC(=O)NCCc1ccc(S(N)(=O)=O)cc1` yielded a Ki of 850 nM.
With `NCC(=O)NCC(=O)Nc1ccc2nc(S(N)(=O)=O)sc2c1`, the affinity corresponds to a Ki of 16 nM.
`CNCC(=O)Nc1nccc(Nc2ccc(S(N)(=O)=O)cc2)n1`: the affinity, expressed as Ki, was 60 nM.
Still for that read-out and setting: the figure for `NCC(=O)Nc1nccc(Nc2ccc(S(N)(=O)=O)cc2)n1` is 61 nM.
`CNCC(=O)Nc1ccc(S(N)(=O)=O)cc1F`: affinity was put at a Ki of 500 nM.
As for `CCN(C(=O)CN)C1CC(C)S(=O)(=O)c2sc(S(N)(=O)=O)cc21` (stereo not given), the Ki worked out at 98 nM.
On the same count and under the same terms, for `CN(CC(=O)NS(=O)(=O)c1ccc(CO)cc1)C(=N)N` the value was 1200 nM.
